Data as given in patent US9266835B2, “Quinoline derivatives useful as CB-1 inverse agonists” (JANSSEN PHARMACEUTICA NV, priority 2014, dated 2016).
Read-outs that look alike come from different tables or passages of the source.

What was measured:
[1] = Open Field Locomotor Activity in Rats (CNS activity), stereotypic counts; type: in vivo, rat; settings: n=8, 4 hours, dose not printed in row (doses 3 and 10 mg/kg)
Text: (§1) Male Sprague Dawley rats were ordered from Charles River (225-250 gm upon arrival). They were fed standard chow diet (Purina 5001) and housed 2 per cage. Male C57bl/6j mice were ordered from Charles River at 22-25 g and housed 3 per cage. They were fed standard chow (Purina 5001). All animals were housed in a temperature-controlled room with 12-hour light/dark cycle. Animals were given food and water ad libitum, except as noted.
(§2) Test compounds were formulated in 10% PEG400 and 10% solutol. Test compounds were administered by oral gavage (5 ml kg^−1).
Male SD rats were weighed and transferred to the Activity Chambers with access to water. After a 2-hr acclimation period, the rats were dosed with vehicle or test compound (@ 3 and 10 mg/kg). The Activity Chamber monitoring software program was initiated and automatically recorded rat activity in each chamber for a period of 4 hours. At the end of the 4 hour monitoring period, the software was stopped and the rats were removed from the activity chambers. The rats were anesthetized and blood samples were obtained via retro-orbital puncture to determine plasma concentration of compounds. The rats were immediately euthanized with CO2 and the brains removed, washed with PBS, frozen on dry ice and stored at −80° C. for receptor occupancy (RO) analysis. […]

[2] = Mouse Fast PK/BBB (plasma and brain concentration); type: in vivo; settings: male, C57bl/6j, oral, N=3 (dose given as 30 mg/kg and 20 mg/kg)
Text: as §1, §2
Male C57bl/6j mice were dosed with test compounds at 30 mg/kg. Plasma was collected via retro-orbital bleeding at 1 hr and 4 hrs after dosing. Whole brain without cerebellum was collected at 4 hrs after dosing. Wet brain weight was recorded before freezing. Brains were homogenized in saline and sent for analysis for determination of concentration of test compound.
Table BIO-3 below present results for representative compounds of the present invention, tested according to the procedure as described above. Each compound was tested in three animals (N=3) and administered PA at 20 mg/kg

[3] = Mouse Fast PK/BBB (plasma and brain concentration); type: in vivo; settings: male, C57bl/6j, brain, oral, N=3 (dose given as 30 mg/kg and 20 mg/kg), read-out: BRAIN Mean Conc. ± Std. Dev
[4] = Open field locomotor study in rats: plasma and brain concentrations 4 hrs post dosing; type: in vivo; settings: male, Sprague Dawley, rat, oral
Text: as §1, §2
Male SD rats were weighed and transferred to the Activity Chambers with access to water. After a 2-hr acclimation period, the rats were dosed with vehicle or test compound (@ 3 and 10 mg/kg). The Activity Chamber monitoring software program was initiated and automatically recorded rat activity in each chamber for a period of 4 hours. At the end of the 4 hour monitoring period, the software was stopped and the rats were removed from the activity chambers. The rats were anesthetized and blood samples were obtained via retro-orbital puncture to determine plasma concentration of compounds. The rats were immediately euthanized with CO2 and the brains removed, washed with PBS, frozen on dry ice and stored at −80° C. for receptor occupancy (RO) analysis.
Satellite groups of 3 rats were dosed with test compound at 3 mg/kg and 10 mg/kg respectively. Four hours later, the rats were anesthetized. Blood was collected from these rats and then they were perfused with 400 ml heparinized saline through the left ventricle of the heart. The brains were removed and homogenized in PBS (4 ml/gm tissue). The samples were submitted for determination of plasma and brain compound levels.
Compound #44 was tested in n=8 animals, according to the procedure as described above, with stereotypic counts as listed in Table BIO-5A; and plasma and brain drug levels as listed in Table BIO-5B, below.

O=c1cc(NC2CCN(S(=O)(=O)C(F)(F)F)CC2)c2cc(C(c3ccc(Cl)cc3)c3ccc(Cl)cc3)ccc2[nH]1 [Compound #44, 6-(bis(4-chlorophenyl)methyl)-4-(1-(trifluoromethylsulfonyl)piperidin-4-ylamino)quinolin-2(1H)-one]
Stereotypic Counts (MEAN) ([1]; first #44 row): 3250
Stereotypic Counts (MEAN) ([1]; second #44 row): 2850
concentration at 4 h ([2]; brain, read-out: BRAIN Mean Conc. ± Std. Dev): 11.8 ± 8.99 ng/mL
concentration at 1 h ([2]; plasma, 1 hr, read-out: PLASMA Mean Conc. ± Std. Dev): 1050 ± 122 ng/mL
concentration at 4 h ([2]; plasma, read-out: PLASMA Mean Conc. ± Std. Dev): 1180 ± 148 ng/mL
concentration at 1 h [3]: 7.62 ± 2.28 ng/mL
concentration at 4 h ([4]; brain, 3 mg/kg, read-out: Brain Mean ± Std Dev): 9.85 ng/g
concentration at 4 h ([4]; brain, 10 mg/kg, read-out: Brain Mean ± Std Dev): 22.7 ng/g
concentration at 4 h ([4]; plasma, 3 mg/kg, read-out: Plasma Mean ± Std Dev): 126 ng/mL
concentration at 4 h ([4]; plasma, 10 mg/kg, read-out: Plasma Mean ± Std Dev): 501 ng/mL
